From ChEMBL document CHEMBL1201862, “PubChem BioAssay data set” (2004)
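A five-concentration, 48-hour dose response in 96-well plates underlies each endpoint, interpolated linearly between surrounding concentrations. The concentration for 50% growth inhibition is given as GI50.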 Calls of active or inactive are those of the source. Rule as the data show it: active = GI50 up to about 1.1 µM and inactive = higher.

What was measured:
Assay in all cases: growth of human tumour cells (NCI), 48 h
786-0 = system: 786-0
A498 = system: A498
A549 = system: A549
ACHN = system: ACHN
CAKI-1 = system: CAKI-1
CCRF-CEM = system: CCRF-CEM
COLO 205 = system: COLO 205
DLD-1 = system: DLD-1
DMS-114 = system: DMS-114
EKVX = system: EKVX
HCC 2998 = system: HCC 2998
HCT-116 = system: HCT-116
HCT-15 = system: HCT-15
HL-60 = system: HL-60
HOP-18 = system: HOP-18
HOP-62 = system: HOP-62
HOP-92 = system: HOP-92
HT-29 = system: HT-29
IGROV-1 = system: IGROV-1
K562 = system: K562
KM-20L2 = system: KM-20L2
KM12 = system: KM12
LOX IMVI = system: LOX IMVI
LXFL 529 = system: LXFL 529
M14 = system: M14
M19-MEL = system: M19-MEL
MOLT-4 = system: MOLT-4
Malme-3M = system: Malme-3M
NCI-H226 = system: NCI-H226
NCI-H23 = system: NCI-H23
NCI-H460 = system: NCI-H460
NCI-H522 = system: NCI-H522
OVCAR-3 = system: OVCAR-3
OVCAR-4 = system: OVCAR-4
OVCAR-5 = system: OVCAR-5
OVCAR-8 = system: OVCAR-8
RPMI-8226 = system: RPMI-8226
RXF 393 = system: RXF 393
RXF 631 = system: RXF 631
SF-268 = system: SF-268
SF-295 = system: SF-295
SF-539 = system: SF-539
SK-MEL-28 = system: SK-MEL-28
SK-MEL-2 = system: SK-MEL-2
SK-OV-3 = system: SK-OV-3
SN12C = system: SN12C
SNB-19 = system: SNB-19
SNB-75 = system: SNB-75
SNB-78 = system: SNB-78
SR = system: SR
SW-620 = system: SW-620
TK-10 = system: TK-10
U-251 = system: U-251
UACC-257 = system: UACC-257
UACC-62 = system: UACC-62
UO-31 = system: UO-31
XF498 = system: XF498
SK-MEL-5 = system: SK-MEL-5

CC(C)CC(=O)NS(=O)(=O)c1ccccc1
GI50 (786-0): > 100 µM (inactive)
GI50 (A498): > 100 µM (inactive)
GI50 (A549): > 100 µM (inactive)
GI50 (ACHN): > 100 µM (inactive)
GI50 (CAKI-1): > 100 µM (inactive)
GI50 (CCRF-CEM): > 100 µM (inactive)
GI50 (COLO 205): > 100 µM (inactive)
GI50 (DLD-1): > 100 µM (inactive)
GI50 (DMS-114): > 100 µM (inactive)
GI50 (EKVX): > 100 µM (inactive)
GI50 (HCC 2998): > 100 µM (inactive)
GI50 (HCT-116): > 100 µM (inactive)
GI50 (HCT-15): > 100 µM
GI50 (HL-60): > 100 µM (inactive)
GI50 (HOP-18): > 100 µM (inactive)
GI50 (HOP-62): > 100 µM (inactive)
GI50 (HOP-92): > 100 µM (inactive)
GI50 (HT-29): > 100 µM (inactive)
GI50 (IGROV-1): > 100 µM (inactive)
GI50 (K562): > 100 µM (inactive)
GI50 (KM-20L2): > 100 µM (inactive)
GI50 (KM12): > 100 µM (inactive)
GI50 (LOX IMVI): > 100 µM (inactive)
GI50 (LXFL 529): > 100 µM (inactive)
GI50 (M14): > 100 µM (inactive)
GI50 (M19-MEL): > 100 µM (inactive)
GI50 (MOLT-4): > 100 µM (inactive)
GI50 (Malme-3M): > 100 µM (inactive)
GI50 (NCI-H226): > 100 µM (inactive)
GI50 (NCI-H23): > 100 µM (inactive)
GI50 (NCI-H460): > 100 µM (inactive)
GI50 (NCI-H522): > 100 µM (inactive)
GI50 (OVCAR-3): > 100 µM (inactive)
GI50 (OVCAR-4): > 100 µM (inactive)
GI50 (OVCAR-5): > 100 µM (inactive)
GI50 (OVCAR-8): > 100 µM (inactive)
GI50 (RPMI-8226): > 100 µM (inactive)
GI50 (RXF 393): > 100 µM (inactive)
GI50 (RXF 631): > 100 µM (inactive)
GI50 (SF-268): > 100 µM (inactive)
GI50 (SF-295): > 100 µM (inactive)
GI50 (SF-539): > 100 µM (inactive)
GI50 (SK-MEL-28): > 100 µM (inactive)
GI50 (SK-MEL-2): > 100 µM (inactive)
GI50 (SK-OV-3): > 100 µM (inactive)
GI50 (SN12C): > 100 µM (inactive)
GI50 (SNB-19): > 100 µM (inactive)
GI50 (SNB-75): > 100 µM (inactive)
GI50 (SNB-78): > 100 µM (inactive)
GI50 (SR): > 100 µM (inactive)
GI50 (SW-620): > 100 µM (inactive)
GI50 (TK-10): > 100 µM (inactive)
GI50 (U-251): > 100 µM (inactive)
GI50 (UACC-257): > 100 µM (inactive)
GI50 (UACC-62): > 100 µM (inactive)
GI50 (UO-31): > 100 µM (inactive)
GI50 (XF498): > 100 µM (inactive)

CCCNC(/C=C/[Si](C)(C)C)CO.CCCNCC(O)/C=C/[Si](C)(C)C (centres undefined)
GI50 (A498): > 100 µM (inactive)
GI50 (A549): > 100 µM (inactive)
GI50 (ACHN): > 100 µM (inactive)
GI50 (CCRF-CEM): > 100 µM (inactive)
GI50 (COLO 205): 98.2 µM (inactive)
GI50 (DLD-1): > 100 µM (inactive)
GI50 (DMS-114): > 100 µM (inactive)
GI50 (EKVX): > 100 µM (inactive)
GI50 (HCC 2998): > 100 µM (inactive)
GI50 (HCT-116): > 100 µM (inactive)
GI50 (HCT-15): > 100 µM
GI50 (HL-60): > 100 µM (inactive)
GI50 (HOP-18): > 100 µM (inactive)
GI50 (HOP-92): 36.9 µM (inactive)
GI50 (HT-29): > 100 µM (inactive)
GI50 (IGROV-1): > 100 µM (inactive)
GI50 (K562): > 100 µM (inactive)
GI50 (KM-20L2): > 100 µM (inactive)
GI50 (KM12): > 100 µM (inactive)
GI50 (LOX IMVI): > 100 µM (inactive)
GI50 (LXFL 529): > 100 µM (inactive)
GI50 (M14): > 100 µM (inactive)
GI50 (M19-MEL): > 100 µM (inactive)
GI50 (MOLT-4): 10 µM (inactive)
GI50 (Malme-3M): > 100 µM (inactive)
GI50 (NCI-H23): > 100 µM (inactive)
GI50 (NCI-H460): > 100 µM (inactive)
GI50 (NCI-H522): > 100 µM (inactive)
GI50 (OVCAR-3): > 100 µM (inactive)
GI50 (OVCAR-5): > 100 µM (inactive)
GI50 (OVCAR-8): > 100 µM (inactive)
GI50 (RPMI-8226): 90.8 µM (inactive)
GI50 (RXF 393): 95.7 µM (inactive)
GI50 (RXF 631): > 100 µM (inactive)
GI50 (SF-295): > 100 µM (inactive)
GI50 (SF-539): > 100 µM (inactive)
GI50 (SK-MEL-28): > 100 µM (inactive)
GI50 (SK-MEL-2): > 100 µM (inactive)
GI50 (SK-MEL-5): > 100 µM (inactive)
GI50 (SK-OV-3): > 100 µM (inactive)
GI50 (SN12C): > 100 µM (inactive)
GI50 (SNB-19): > 100 µM (inactive)
GI50 (SNB-75): 40.6 µM (inactive)
GI50 (SNB-78): > 100 µM (inactive)
GI50 (SR): > 100 µM (inactive)
GI50 (SW-620): > 100 µM (inactive)
GI50 (TK-10): > 100 µM (inactive)
GI50 (U-251): > 100 µM (inactive)
GI50 (UACC-257): > 100 µM (inactive)
GI50 (UACC-62): > 100 µM (inactive)
GI50 (UO-31): > 100 µM (inactive)
GI50 (XF498): 22 µM (inactive)
